Experimental data taken from US6750349B2, “Gastrokinetic monocyclic benzamides of 3-or 4-substituted 4-(aminoethyl)-piperidine derivatives” (Janssen Pharmaceutics, N.V., priority 1997, dated 2004).

Test system: conscious dogs
Experiment: Gastric emptying of an acaloric liquid test meal delayed by administration of lidamidine, in conscious dogs
Type: in vivo, beagle dogs
Conditions: conscious dog; for ΔT/T^b (acceleration of gastric emptying of a liquid meal delayed by lidamidine): dose of 0.0025 mg/kg; for ΔT/T^a (acceleration of gastric emptying of a liquid meal delayed by lidamidine): dose of 0.01 mg/kg
Excerpt: C.1. Gastric Emptying of an Acaloric Liquid Test Meal Delayed by Administration of Lidamidine, in Conscious Dogs
Female beagle dogs, weighing 7-14 kg, were trained to stand quietly in Pavlov frames. They were implanted with a gastric cannula under general anesthesia and aseptic precautions. After a median laparatomy, an incision was made through the gastric wall in the longitudinal direction between the greater and the lesser curve, 2 cm above the nerves of Latarjet. The cannula was secured to the gastric wall by means of a double purse string suture and brought out via a stab wound at the left quadrant of the hypochondrium. Dogs were allowed a recovery period of at least two weeks. Experiments were started after a fasting period of 24 hours, during which water was available ad libitum. At the beginning of the experiment, the cannula was opened in order to remove any gastric juice or food remnants.
The stomach was cleansed with 40 to 50 ml lukewarm water. The test compound was administered I.V. (in a volume≦3 ml via the vena cephalica), S. C. (in a volume≦3 ml) or P. O. (in a volume of 1 ml/kg body weight, applied intragastrically via the cannula with a device that filled the lumen of the cannula; after injection of the test compound, 5 ml NaCl 0.9% was injected in order to correct for the dead space in the injection system). Immediately after administration of the test compound or its solvent, lidamidine 0.63 mg/kg was administered subcutaneously. 30 min later, the cannula was opened to determine the amount of fluid present in the stomach, promptly followed by reintroduction of the fluid. Then the test meal was administered via the cannula. This test meal consisted of 250 ml distilled water containing glucose (5 g/l) as a marker. The cannula remained closed for 30 min, whereafter the gastric contents were drained from the stomach to measure total volume (t=30 min). For later analysis 1 ml of the gastric contents was taken, promptly followed by reintroduction of the rest volume into the stomach. This sequence was repeated 4 times with 30 min intervals (t=60, 90, 120, 150 min).
In the 1 ml samples of the gastric contents, the glucose concentrations were measured on a Hitachi 717 automatic analyzer by the hexokinase method (Schmidt, 1961).
Curves were fitted to the measurement points (glucose versus time) using weighed non-linear regression analysis. Gastric emptying was quantified as the time needed to empty 70% of the meal (t70%). The control emptying time was calculated as the mean t70% of the last 5 solvent experiments of the same dog. Acceleration of delayed gastric emptying (Δt) was calculated as the time difference between t70% compound and t70% solvent. To correct for variations in emptying rate between dogs, Δt was expressed as % of t70% solvent (Schuurkes et al, 1992)).

[1] = compounds, Δt = t70% compound minus t70% solvent, relative to t70% solvent

## CCCCN1CC[C@@H](CNC(=O)c2cc(Cl)c(N)c(OC)c2OC)[C@H](O)C1.O (racemic) [Compound 9, (±)-trans-4-amino-N-[(1-butyl-3-hydroxy-4-piperidinyl)methyl] -5-chloro-2,3-dimethoxybenzamide monohydrate]
[1]
  ΔT/T^b (acceleration of gastric emptying of a liquid meal delayed by lidamidine): −0.29
  ΔT/T^a (acceleration of gastric emptying of a liquid meal delayed by lidamidine): −0.55
intermediates
  ΔT/T^b (acceleration of gastric emptying of a liquid meal delayed by lidamidine): −0.40
  ΔT/T^a (acceleration of gastric emptying of a liquid meal delayed by lidamidine): −0.31

## COCCCN1CC[C@@H](CNC(=O)c2cc(Cl)c(N)c(OC)c2OC)[C@H](O)C1 (racemic) [Compound 11, (±)-trans-4-amino-5-chloro-N-[[3-hydroxy-1-(3-methoxypropyl)-4-piperidinyl]methyl]-2,3-dimethoxybenzamide]
[1]
  ΔT/T^b (acceleration of gastric emptying of a liquid meal delayed by lidamidine): −0.62
  ΔT/T^a (acceleration of gastric emptying of a liquid meal delayed by lidamidine): −0.59

## COc1c(C(=O)NC[C@@H]2CCN(CCCC(C)=O)C[C@H]2O)cc(Cl)c(N)c1OC.O (racemic) [Compound 14, (±)-trans-4-amino-5-chloro-N-[[3-hydroxy-1-(4-oxopentyl)-4-piperidinyl]methyl]-2,3-dimethoxybenzamide monohydrate]
[1]
  ΔT/T^b (acceleration of gastric emptying of a liquid meal delayed by lidamidine): −0.52
  ΔT/T^a (acceleration of gastric emptying of a liquid meal delayed by lidamidine): −0.67
